Like-named read-outs stand apart in the source and are kept apart here.
What was measured:
Experiment in all cases: Eurofins KINOMEscan profiling, 97 kinases
[1] = biological target: 97 kinases (kinase named in endpoint) (Homo sapiens, UniProt P00533, L858R); conditions: read-out: % Ctrl, EGFR(L858R)
[2] = biological target: 97 kinases (kinase named in endpoint) (Homo sapiens, UniProt P53779); conditions: read-out: % Ctrl, JNK3
[3] = biological target: 97 kinases (kinase named in endpoint) (Homo sapiens, UniProt P49137); conditions: read-out: % Ctrl, MAPKAPK2
Chain of 97 kinases (kinase named in endpoint) (Homo sapiens, UniProt P49137) (P49137 whole entry): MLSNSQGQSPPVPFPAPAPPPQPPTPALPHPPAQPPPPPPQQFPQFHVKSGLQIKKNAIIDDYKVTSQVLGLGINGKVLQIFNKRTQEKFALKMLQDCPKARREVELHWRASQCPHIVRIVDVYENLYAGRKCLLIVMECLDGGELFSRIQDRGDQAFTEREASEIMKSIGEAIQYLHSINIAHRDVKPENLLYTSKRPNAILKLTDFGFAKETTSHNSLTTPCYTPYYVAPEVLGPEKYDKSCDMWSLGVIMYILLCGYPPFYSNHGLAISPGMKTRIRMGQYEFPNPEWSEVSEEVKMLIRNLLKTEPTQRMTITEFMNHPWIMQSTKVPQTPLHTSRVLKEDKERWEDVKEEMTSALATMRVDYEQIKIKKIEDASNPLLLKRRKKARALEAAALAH

[4] = biological target: 97 kinases (kinase named in endpoint) (Homo sapiens, UniProt O15530); conditions: read-out: % Ctrl, PDPK1
[5] = biological target: 97 kinases (kinase named in endpoint) (Homo sapiens, UniProt P17612); conditions: read-out: % Ctrl, PKAC-alpha
[6] = biological target: 97 kinases (kinase named in endpoint) (Homo sapiens, UniProt Q9BWU1); conditions: read-out: % Ctrl, CDK11
[7] = biological target: 97 kinases (kinase named in endpoint) (Homo sapiens, UniProt P80192); conditions: read-out: % Ctrl, MLK1
[8] = biological target: 97 kinases (kinase named in endpoint) (Homo sapiens, UniProt P36888); conditions: read-out: % Ctrl, FLT3
[9] = biological target: 97 kinases (kinase named in endpoint) (Homo sapiens, UniProt O14920); conditions: read-out: % Ctrl, IKK-beta
[10] = biological target: 97 kinases (kinase named in endpoint) (Homo sapiens, UniProt O96013); conditions: read-out: % Ctrl, PAK4
[11] = biological target: 97 kinases (kinase named in endpoint) (Homo sapiens, UniProt Q02763); conditions: read-out: % Ctrl, TIE2
[12] = biological target: 97 kinases (kinase named in endpoint) (Homo sapiens, UniProt P36507); conditions: read-out: % Ctrl, MEK2
Chain of 97 kinases (kinase named in endpoint) (Homo sapiens, UniProt P36507) (P36507 whole entry): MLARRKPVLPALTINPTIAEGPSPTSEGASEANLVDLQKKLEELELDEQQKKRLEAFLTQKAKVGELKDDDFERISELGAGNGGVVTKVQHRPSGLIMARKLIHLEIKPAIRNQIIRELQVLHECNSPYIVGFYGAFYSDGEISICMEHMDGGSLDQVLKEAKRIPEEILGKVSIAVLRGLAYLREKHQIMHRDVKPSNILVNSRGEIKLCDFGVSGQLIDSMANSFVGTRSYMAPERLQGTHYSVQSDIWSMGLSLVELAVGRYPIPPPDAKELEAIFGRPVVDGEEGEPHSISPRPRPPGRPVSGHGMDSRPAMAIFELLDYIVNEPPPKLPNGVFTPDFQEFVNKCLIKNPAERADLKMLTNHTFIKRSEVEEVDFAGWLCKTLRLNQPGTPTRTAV

[13] = biological target: 97 kinases (kinase named in endpoint) (Homo sapiens, UniProt P27448); conditions: read-out: % Ctrl, MARK3
[14] = biological target: 97 kinases (kinase named in endpoint) (Homo sapiens, UniProt P04629); conditions: read-out: % Ctrl, TRKA
Chain of 97 kinases (kinase named in endpoint) (Homo sapiens, UniProt P04629) (P04629 33-796): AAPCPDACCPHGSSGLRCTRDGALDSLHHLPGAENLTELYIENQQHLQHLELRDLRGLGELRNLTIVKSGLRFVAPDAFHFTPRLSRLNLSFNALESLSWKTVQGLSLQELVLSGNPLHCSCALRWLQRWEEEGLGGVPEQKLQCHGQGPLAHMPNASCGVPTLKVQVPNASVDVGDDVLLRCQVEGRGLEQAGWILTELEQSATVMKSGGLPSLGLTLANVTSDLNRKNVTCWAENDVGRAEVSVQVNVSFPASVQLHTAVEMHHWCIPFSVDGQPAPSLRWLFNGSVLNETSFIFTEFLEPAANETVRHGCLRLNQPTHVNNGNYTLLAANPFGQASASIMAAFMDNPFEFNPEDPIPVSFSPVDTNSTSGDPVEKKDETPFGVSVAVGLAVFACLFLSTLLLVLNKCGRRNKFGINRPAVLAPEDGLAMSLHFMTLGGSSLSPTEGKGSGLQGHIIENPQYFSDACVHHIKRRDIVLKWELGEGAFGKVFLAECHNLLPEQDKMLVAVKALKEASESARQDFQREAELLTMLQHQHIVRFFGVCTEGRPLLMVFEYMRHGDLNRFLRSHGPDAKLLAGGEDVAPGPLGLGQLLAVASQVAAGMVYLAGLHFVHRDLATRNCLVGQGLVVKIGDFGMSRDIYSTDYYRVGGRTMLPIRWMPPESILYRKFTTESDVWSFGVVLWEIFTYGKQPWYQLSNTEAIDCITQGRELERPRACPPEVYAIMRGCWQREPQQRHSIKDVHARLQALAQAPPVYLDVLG

[15] = biological target: 97 kinases (kinase named in endpoint) (Homo sapiens, UniProt P08069); conditions: read-out: % Ctrl, IGF1R
[16] = biological target: 97 kinases (kinase named in endpoint) (Homo sapiens, UniProt Q00526); conditions: read-out: % Ctrl, CDK3
[17] = biological target: 97 kinases (kinase named in endpoint) (Homo sapiens, UniProt P36896); conditions: read-out: % Ctrl, ACVR1B
Chain of 97 kinases (kinase named in endpoint) (Homo sapiens, UniProt P36896) (P36896 24-505): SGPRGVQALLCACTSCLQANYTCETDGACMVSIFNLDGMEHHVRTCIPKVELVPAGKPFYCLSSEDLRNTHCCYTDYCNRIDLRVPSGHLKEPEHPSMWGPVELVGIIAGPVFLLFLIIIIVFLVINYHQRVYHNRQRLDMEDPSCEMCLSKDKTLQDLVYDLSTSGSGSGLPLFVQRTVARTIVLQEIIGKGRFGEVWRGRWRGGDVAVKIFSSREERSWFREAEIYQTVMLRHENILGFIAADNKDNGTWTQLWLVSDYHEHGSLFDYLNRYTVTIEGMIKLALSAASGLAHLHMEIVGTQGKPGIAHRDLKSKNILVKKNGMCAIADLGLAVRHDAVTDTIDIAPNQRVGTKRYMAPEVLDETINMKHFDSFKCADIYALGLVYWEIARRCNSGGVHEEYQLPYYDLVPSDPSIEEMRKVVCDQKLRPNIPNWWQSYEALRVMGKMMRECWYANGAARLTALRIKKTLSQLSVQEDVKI

[18] = biological target: 97 kinases (kinase named in endpoint) (Homo sapiens, UniProt Q9BXA7); conditions: read-out: % Ctrl, TSSK1B
Chain of 97 kinases (kinase named in endpoint) (Homo sapiens, UniProt Q9BXA7) (Q9BXA7 whole entry): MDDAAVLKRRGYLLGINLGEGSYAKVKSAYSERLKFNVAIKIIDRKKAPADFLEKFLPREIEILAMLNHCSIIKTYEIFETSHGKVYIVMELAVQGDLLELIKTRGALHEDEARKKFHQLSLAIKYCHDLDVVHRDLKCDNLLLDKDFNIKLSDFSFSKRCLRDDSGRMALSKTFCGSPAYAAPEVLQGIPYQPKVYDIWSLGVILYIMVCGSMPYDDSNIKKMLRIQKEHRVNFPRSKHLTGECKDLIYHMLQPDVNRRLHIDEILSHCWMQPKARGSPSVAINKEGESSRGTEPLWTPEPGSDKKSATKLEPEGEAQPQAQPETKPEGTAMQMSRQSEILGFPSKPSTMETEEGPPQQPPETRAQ

[19] = biological target: 97 kinases (kinase named in endpoint) (Homo sapiens, UniProt O15075); conditions: read-out: % Ctrl, DCAMKL1
Chain of 97 kinases (kinase named in endpoint) (Homo sapiens, UniProt O15075) (O15075 whole entry): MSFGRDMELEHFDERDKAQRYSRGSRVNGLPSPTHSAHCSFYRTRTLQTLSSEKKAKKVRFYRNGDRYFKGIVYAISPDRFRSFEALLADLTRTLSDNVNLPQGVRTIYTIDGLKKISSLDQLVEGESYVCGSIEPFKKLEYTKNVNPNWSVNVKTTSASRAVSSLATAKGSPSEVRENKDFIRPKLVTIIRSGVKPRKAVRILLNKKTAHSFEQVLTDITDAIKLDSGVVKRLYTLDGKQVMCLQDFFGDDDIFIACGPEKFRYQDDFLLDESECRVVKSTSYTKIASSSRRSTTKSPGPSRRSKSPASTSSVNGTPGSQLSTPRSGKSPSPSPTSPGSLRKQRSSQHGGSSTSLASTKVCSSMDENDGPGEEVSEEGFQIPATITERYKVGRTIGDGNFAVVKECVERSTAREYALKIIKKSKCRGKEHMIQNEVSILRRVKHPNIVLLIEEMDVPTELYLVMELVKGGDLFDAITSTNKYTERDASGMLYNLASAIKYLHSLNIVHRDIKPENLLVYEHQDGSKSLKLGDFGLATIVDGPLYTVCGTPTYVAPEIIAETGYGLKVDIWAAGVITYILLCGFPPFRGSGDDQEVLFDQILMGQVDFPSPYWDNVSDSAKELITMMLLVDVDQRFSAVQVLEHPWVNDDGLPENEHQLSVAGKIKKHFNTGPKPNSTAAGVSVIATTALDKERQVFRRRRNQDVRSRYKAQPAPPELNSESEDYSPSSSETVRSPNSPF

[20] = biological target: 97 kinases (kinase named in endpoint) (Homo sapiens, UniProt P21802); conditions: read-out: % Ctrl, FGFR2
[21] = biological target: 97 kinases (kinase named in endpoint) (Homo sapiens, UniProt P15056); conditions: read-out: % Ctrl, BRAF
Chain of 97 kinases (kinase named in endpoint) (Homo sapiens, UniProt P15056) (P15056 whole entry): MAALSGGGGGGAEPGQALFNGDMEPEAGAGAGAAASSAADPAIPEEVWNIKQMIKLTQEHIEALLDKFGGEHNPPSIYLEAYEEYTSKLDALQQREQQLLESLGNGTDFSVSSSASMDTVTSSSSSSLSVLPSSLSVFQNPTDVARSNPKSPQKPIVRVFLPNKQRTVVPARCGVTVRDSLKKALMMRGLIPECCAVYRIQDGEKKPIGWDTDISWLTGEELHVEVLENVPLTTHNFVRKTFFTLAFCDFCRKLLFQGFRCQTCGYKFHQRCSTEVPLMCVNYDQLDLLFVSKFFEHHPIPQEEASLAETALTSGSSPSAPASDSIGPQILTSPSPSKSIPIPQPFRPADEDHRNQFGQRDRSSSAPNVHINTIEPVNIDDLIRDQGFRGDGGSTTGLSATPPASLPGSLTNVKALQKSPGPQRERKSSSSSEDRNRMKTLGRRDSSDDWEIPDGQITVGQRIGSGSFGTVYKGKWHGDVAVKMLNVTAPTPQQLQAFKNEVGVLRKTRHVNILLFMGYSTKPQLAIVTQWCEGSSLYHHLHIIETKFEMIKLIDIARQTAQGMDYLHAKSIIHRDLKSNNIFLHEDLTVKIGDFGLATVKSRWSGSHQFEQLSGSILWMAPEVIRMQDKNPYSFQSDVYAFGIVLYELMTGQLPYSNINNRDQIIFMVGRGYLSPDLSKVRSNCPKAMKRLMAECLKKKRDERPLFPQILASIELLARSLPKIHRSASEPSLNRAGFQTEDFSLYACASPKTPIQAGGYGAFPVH

[22] = biological target: 97 kinases (kinase named in endpoint) (Homo sapiens, UniProt P53350); conditions: read-out: % Ctrl, PLK1
[23] = biological target: 97 kinases (kinase named in endpoint) (Homo sapiens, UniProt P04049); conditions: read-out: % Ctrl, RAF1
[24] = biological target: 97 kinases (kinase named in endpoint) (Homo sapiens, UniProt P07949); conditions: read-out: % Ctrl, RET
[25] = biological target: 97 kinases (kinase named in endpoint) (Homo sapiens, UniProt Q9BVS4); conditions: read-out: % Ctrl, RIOK2
[26] = biological target: 97 kinases (kinase named in endpoint) (Homo sapiens, UniProt Q86V86); conditions: read-out: % Ctrl, PIM3
[27] = biological target: 97 kinases (kinase named in endpoint) (Homo sapiens, UniProt P00519)
Chain of 97 kinases (kinase named in endpoint) (Homo sapiens, UniProt P00519) (P00519 whole entry): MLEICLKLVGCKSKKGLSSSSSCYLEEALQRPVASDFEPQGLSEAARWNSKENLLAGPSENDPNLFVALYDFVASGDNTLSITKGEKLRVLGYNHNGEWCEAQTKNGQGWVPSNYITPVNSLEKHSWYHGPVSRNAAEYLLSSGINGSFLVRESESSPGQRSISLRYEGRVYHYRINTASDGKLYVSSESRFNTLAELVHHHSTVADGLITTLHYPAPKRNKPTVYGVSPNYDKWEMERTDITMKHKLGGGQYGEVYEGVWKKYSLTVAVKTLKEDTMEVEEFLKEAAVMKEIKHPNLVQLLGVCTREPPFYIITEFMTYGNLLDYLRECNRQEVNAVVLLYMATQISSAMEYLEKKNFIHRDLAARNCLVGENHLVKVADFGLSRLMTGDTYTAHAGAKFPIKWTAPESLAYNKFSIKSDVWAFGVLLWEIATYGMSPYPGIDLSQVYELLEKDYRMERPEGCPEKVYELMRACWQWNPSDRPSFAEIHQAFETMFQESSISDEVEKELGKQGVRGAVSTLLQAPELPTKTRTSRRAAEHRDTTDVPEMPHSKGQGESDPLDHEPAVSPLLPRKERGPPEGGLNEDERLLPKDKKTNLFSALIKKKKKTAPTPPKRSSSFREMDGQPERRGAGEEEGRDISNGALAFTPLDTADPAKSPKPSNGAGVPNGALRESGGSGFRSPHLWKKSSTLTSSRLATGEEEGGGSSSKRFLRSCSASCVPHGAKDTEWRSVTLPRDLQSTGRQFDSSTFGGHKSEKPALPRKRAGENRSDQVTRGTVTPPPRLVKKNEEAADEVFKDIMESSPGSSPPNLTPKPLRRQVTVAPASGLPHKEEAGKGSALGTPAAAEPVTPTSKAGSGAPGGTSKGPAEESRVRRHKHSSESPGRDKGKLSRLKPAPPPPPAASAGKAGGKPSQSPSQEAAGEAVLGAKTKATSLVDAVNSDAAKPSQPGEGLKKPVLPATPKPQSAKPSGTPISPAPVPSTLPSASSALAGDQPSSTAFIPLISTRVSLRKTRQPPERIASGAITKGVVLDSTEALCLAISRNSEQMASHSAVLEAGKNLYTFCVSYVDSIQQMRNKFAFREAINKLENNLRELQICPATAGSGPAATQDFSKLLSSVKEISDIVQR

[28] = biological target: 97 kinases (kinase named in endpoint) (Homo sapiens, UniProt P24941); conditions: read-out: % Ctrl, CDK2
[29] = read-out: % Ctrl, ABL1-nonphosphorylated
[30] = read-out: % Ctrl, ABL1-phosphorylated

CCCCCCCCCCCCCC(=O)N[C@@H](CC(N)=O)C(=O)N[C@@H](CC(C)C)C(=O)N[C@]1(C)CCCCCCC=CCCC[C@@](C)(C(=O)N[C@@H](CCC(=O)O)C(=O)N[C@@H](CC(C)C)C(=O)N[C@@H](CC(N)=O)C(N)=O)NC(=O)[C@H](CC(C)C)NC(=O)[C@H](CC(C)C)NC(=O)[C@H](CCCNC(=N)N)NC(=O)[C@H](CC(=O)O)NC(=O)[C@H](CC(C)C)NC(=O)[C@H](CCC(=O)O)NC1=O [compound 2012]
remaining binding at 1 µM [1]: 99% | remaining binding at 1 µM [2]: 100% | remaining binding at 1 µM [3]: 100% | remaining binding at 1 µM [4]: 99% | remaining binding at 1 µM [5]: 91% | remaining binding at 1 µM [6]: 87% | remaining binding at 1 µM [7]: 100% | remaining binding at 1 µM [8]: 93% | remaining binding at 1 µM [9]: 100% | remaining binding at 1 µM [10]: 100% | remaining binding at 1 µM [11]: 98% | remaining binding at 1 µM [12]: 79% | remaining binding at 1 µM [13]: 91% | remaining binding at 1 µM [14]: 100% | remaining binding at 1 µM [15]: 100% | remaining binding at 1 µM [16]: 89% | remaining binding at 1 µM [17]: 81% | remaining binding at 1 µM [18]: 98% | remaining binding at 1 µM [19]: 86% | remaining binding at 1 µM [20]: 90% | remaining binding at 1 µM [21]: 100% | remaining binding at 1 µM [22]: 89% | remaining binding at 1 µM [23]: 81% | remaining binding at 1 µM [24]: 99% | remaining binding at 1 µM [25]: 91% | remaining binding at 1 µM [26]: 100% | remaining binding at 1 µM [27, 29]: 56% | remaining binding at 1 µM [27, 30]: 80% | remaining binding at 1 µM [28]: 88%

CNC(=O)c1ccc(Nc2ncc(C(F)(F)F)c(NCc3nccnc3N(C)S(C)(=O)=O)n2)cc1 [defactinib]
remaining binding at 1 µM [1]: 81% | remaining binding at 1 µM [2]: 90% | remaining binding at 1 µM [3]: 100% | remaining binding at 1 µM [4]: 50% | remaining binding at 1 µM [5]: 72% | remaining binding at 1 µM [6]: 97% | remaining binding at 1 µM [7]: 6.7% | remaining binding at 1 µM [8]: 1.1% | remaining binding at 1 µM [9]: 100% | remaining binding at 1 µM [10]: 7.4% | remaining binding at 1 µM [11]: 41% | remaining binding at 1 µM [12]: 64% | remaining binding at 1 µM [13]: 50% | remaining binding at 1 µM [14]: 1% | remaining binding at 1 µM [15]: 71% | remaining binding at 1 µM [16]: 62% | remaining binding at 1 µM [17]: 83% | remaining binding at 1 µM [18]: 82% | remaining binding at 1 µM [19]: 47% | remaining binding at 1 µM [20]: 43% | remaining binding at 1 µM [21]: 100% | remaining binding at 1 µM [22]: 17% | remaining binding at 1 µM [23]: 86% | remaining binding at 1 µM [24]: 12% | remaining binding at 1 µM [25]: 50% | remaining binding at 1 µM [26]: 40% | remaining binding at 1 µM [27, 29]: 37% | remaining binding at 1 µM [27, 30]: 51% | remaining binding at 1 µM [28]: 63%

Source: paper PMC11871066, “Structure-based discovery of hydrocarbon-stapled paxillin peptides that block FAK scaffolding in cancer” (Nature Communications, 2025)
